How the values were obtained:
Format in all cases: biochemical
[1] = target: T1, Recombinant human AOC1/DAO protein (Homo sapiens, UniProt P19801); assay: Inhibitory activity on AOC1 (Amplex UltraRed)
T1 construct: purchased R&D systems 8298-AO
T1 sequence (P19801 20-751): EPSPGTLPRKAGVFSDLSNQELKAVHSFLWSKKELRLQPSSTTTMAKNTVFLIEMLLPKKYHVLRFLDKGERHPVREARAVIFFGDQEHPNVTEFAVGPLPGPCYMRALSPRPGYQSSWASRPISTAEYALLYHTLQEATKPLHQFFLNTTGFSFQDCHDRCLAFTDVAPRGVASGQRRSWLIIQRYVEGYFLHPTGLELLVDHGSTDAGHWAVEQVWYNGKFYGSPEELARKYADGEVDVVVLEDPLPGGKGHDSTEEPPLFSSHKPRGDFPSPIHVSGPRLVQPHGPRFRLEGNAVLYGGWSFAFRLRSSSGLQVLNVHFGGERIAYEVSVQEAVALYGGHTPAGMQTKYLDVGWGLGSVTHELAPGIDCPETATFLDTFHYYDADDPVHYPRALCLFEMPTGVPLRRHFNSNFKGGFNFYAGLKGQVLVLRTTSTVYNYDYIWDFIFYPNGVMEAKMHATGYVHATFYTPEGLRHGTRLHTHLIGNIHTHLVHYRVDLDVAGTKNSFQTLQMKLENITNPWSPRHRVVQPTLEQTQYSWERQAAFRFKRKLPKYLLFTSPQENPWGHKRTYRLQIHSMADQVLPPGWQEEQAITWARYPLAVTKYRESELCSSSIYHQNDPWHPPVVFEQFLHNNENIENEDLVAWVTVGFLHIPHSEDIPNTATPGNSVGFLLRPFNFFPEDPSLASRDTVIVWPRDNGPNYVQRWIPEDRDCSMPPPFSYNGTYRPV
Method: Recombinant human AOC1/DAO protein was purchased from R&D systems (Cat: 8298-AO). Amplex UltraRed was purchased from Thermo scientific (Cat: A36006). HRP (Cat: P8250) and Putrescine (Cat: V900377) were purchased from Sigma. Enzyme reaction buffer (50 mM HEPES, 120 mM NaCl, 5 mM KCl, 2 mM CaCl2, 1.4 mM MgCl2, 0.001% Tween-20, pH7.4) was prepared. Test compound was dissolved in DMSO and diluted by 3-fold concentration in gradient. The final concentration of test compound in 10 μL reaction system was 100 μM to 5 nM when AOC1 was detected. The content of DMSO in detection reaction was 1%. After the solution of test compound in DMSO was diluted in the enzyme reaction buffer at a volume ratio of 1:25, 10 μL of mixture was added to each well of detection plate. 4× substrate mixture (containing 400 μM Putrescine, 4 U/mL HRP, 4 μM Amplex UltraRed) was prepared in the enzyme reaction buffer, 10 μL of which was added to each well. 20 μL of AOC1 protein diluted in enzyme reaction buffer was added to each well at final concentration 0.4 nM in 40 μL reaction system. Synergy Neo 2 was used to read the plate for detection. The instrument was set at 30° C., 530 nm excitation wavelength, 590 nm emission wavelength. Detection was conducted once every minute for 30 minutes continuously. The enzyme activity was calculated based on the increased signal of each well from the 10th minute to the 30th minute. The value was converted into inhibition rate by the following formula Inhibition rate=(Signalpositive−Signaltest)/(Signalpositive−Signalnegative)×100%
Signalpositive was positive control without test compound. Signalnegative was negative control without test compound and AOC1, and Signaltest was detection value of different compounds at each concentration. IC50 value was calculated by using 4 parameter curve fitting.

Recombinant human MAO-B = target: T2, Recombinant human MAO-B (Homo sapiens, UniProt P27338); assay: Inhibitory activity on MAO-B
T2 construct: purchased Sigma M7441
T2 sequence (P27338 1-520): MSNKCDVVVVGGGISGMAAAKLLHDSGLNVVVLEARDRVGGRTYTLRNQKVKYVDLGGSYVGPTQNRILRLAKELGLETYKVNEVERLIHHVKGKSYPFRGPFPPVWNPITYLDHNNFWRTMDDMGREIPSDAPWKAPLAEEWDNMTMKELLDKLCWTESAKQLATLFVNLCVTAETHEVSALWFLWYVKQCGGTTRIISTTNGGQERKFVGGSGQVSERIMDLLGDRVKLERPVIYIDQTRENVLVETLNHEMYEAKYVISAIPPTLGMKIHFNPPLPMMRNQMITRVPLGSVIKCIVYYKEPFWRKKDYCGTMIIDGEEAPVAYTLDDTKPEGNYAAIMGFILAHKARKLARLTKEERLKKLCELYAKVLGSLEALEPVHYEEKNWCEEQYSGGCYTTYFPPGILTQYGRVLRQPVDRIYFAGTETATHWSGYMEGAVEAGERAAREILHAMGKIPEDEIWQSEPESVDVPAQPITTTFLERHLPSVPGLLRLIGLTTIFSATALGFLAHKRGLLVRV
Method: (§1) Recombinant human MAO-A and MAO-B protein was purchased from Sigma (M7316, M7441). Other reagents are the same as Biological Test Example 1. The final concentration of test compound in 10 μL reaction system was 100 μM to 5 nM when MAO-A and MAO-B were detected. The final concentrations of MAO-A and MAO-B protein in 10 μL reaction system were 70 nM and 300 nM, respectively, while other reaction conditions were the same as those in Biological Test Example 1. Data analysis and IC50 calculation method were the same as those in Biological Test Example 1.

Recombinant human MAO-A = target: T3, Recombinant human MAO-A (Homo sapiens, UniProt P21397); assay: Inhibitory activity on MAO-A
T3 construct: purchased Sigma M7316
T3 sequence (P21397 1-527): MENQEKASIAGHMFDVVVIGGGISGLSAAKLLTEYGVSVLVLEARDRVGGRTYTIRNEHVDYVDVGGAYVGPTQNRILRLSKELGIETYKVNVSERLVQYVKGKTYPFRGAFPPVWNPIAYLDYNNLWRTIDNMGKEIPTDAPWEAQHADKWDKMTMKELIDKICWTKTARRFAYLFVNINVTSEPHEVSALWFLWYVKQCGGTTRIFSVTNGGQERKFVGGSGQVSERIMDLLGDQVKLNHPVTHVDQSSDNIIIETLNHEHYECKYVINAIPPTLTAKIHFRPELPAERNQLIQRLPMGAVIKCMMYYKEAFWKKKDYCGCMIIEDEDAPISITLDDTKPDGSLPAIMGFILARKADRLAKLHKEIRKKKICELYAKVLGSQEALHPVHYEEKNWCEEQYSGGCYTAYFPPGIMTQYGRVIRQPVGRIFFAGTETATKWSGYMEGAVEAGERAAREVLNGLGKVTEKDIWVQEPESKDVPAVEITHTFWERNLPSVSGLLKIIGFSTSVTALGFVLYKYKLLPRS
Method: as §1

Row | Compound | IC50 [1] [µM] | IC50 (Recombinant human MAO-B) [µM] | IC50 (Recombinant human MAO-A) [µM]
1 | CC1(C)CN(C2COC2)CCN1c1ncc(OC/C(=C/F)CN)cn1 [Example 5] | > 10 | > 20 | > 100
2 | NC/C(=C\F)COc1cnc(N2CC3CCC(C2)N3C2COC2)nc1 [Example 6] | > 10 | > 20 | > 100
3 | N#Cc1cc(OC/C(=C/F)CN)cnc1N1CCN(C2COC2)CC1 [Example 7] | > 10 | 5 to 20 | > 100
4 | NC/C(=C/F)COc1cnc(N2CCN(C3COC3)CC2)nc1 [Example 8] | > 10 | 5 to 20 | 2 to 100
5 | CC1(C)CN(c2ncc(OC/C(=C/F)CN)cn2)CCN1C1COC1 [Example 10] | > 10 | > 20 | > 100
6 | COC1CC2CCC(C1)N2c1ncc(OC/C(=C/F)CN)cn1 (stereo not drawn) [Example 12] | > 10 | > 20 | 2 to 100

Second part, the compound after the results:

Row | IC50 [1] [µM] | IC50 (Recombinant human MAO-B) [µM] | IC50 (Recombinant human MAO-A) [µM] | Compound
7 | > 10 | > 20 | > 100 | CC1CN(c2ncc(OC/C(=C/F)CN)cn2)CC(C)N1C1COC1 (stereo not drawn) [Example 1, (E)-2-(((2-(3,5-dimethyl-4-(oxbutan-3-yl)piperazin-1-yl)pyrimidin-5-yl)oxo)methyl)-3-fluoroprop-2-en-1-amine]
8 | 0.1 to 10 | > 20 | 2 to 100 | COC1CC2CC1CN2c1ncc(OC/C(=C/F)CN)cn1 (stereo not drawn) [Example 2]
9 | 0.1 to 10 | > 20 | 2 to 100 | NC/C(=C\F)COc1cnc(N2CCC3(CC2)COC3)nc1 [Example 3]
10 | > 10 | > 20 | > 100 | NC/C(=C\F)COc1cnc(N2CCN(C3COC3)CC2)nc1 [Example 4, (E)-3-fluoro-2-(((2-(4-(oxbutan-3-yl)piperazin-1-yl)pyrimidin-5-yl)oxo)methyl)prop-2-en-1-amine]
11 | 0.1 to 10 | > 20 | > 100 | NC/C(=C\F)COc1cnc(N2CCN(c3cnc(N4CCN(C5COC5)CC4)nc3)CC2)nc1 [Example 9]
